Laboratory results taken from patent US3950393A, “Aminobenzyl-amides and salts thereof” (Boehringer Ingelheim GmbH, priority 1973, dated 1976).
Where a name gives a salt, the structure may show the parent alone. Read-outs that look alike come from different tables or passages of the source.

How the values were obtained:
[1] = system: guinea pigs; assay: Secretolytic (expectorant) effect in anesthetized guinea pigs after oral application; assay type: in vivo; settings: 8 mgm/kg oral, within 2 hours, 6-8 animals
Method: (§1) The expectorant activity was tested on anesthetized rabbits and guinea pigs after oral application of 8 mgm/kg of the test compound to 6-8 animals. The increase in secretion within 2 hours was calculated from the amounts of secretion before and after application of the substance [see Perry and Boyd in Pharmakol. exp. Therap. 73, 65 (1941)].

[2] = system: cats; assay: Circulatory effect in cats under chloralose-urethane anesthesia after intravenous application; assay type: in vivo; settings: 2, 4 and 8 mgm/kg intravenous, 3 animals per dose
Method: The circulatory effect in cats was determined under chloralose-urethane anesthesia after intravenous application of 2,4 and 8 mgm/kg of the test compound (3 animals per dose).

[3] = in vivo; settings: mouse, in vivo, po
Method: (§2) The acute toxicity of the test compounds was determined after a single application of 1000 or 2000 mgm/kg p.o., respectively, to 5 white mice each.

[4] = system: white mice; assay: in vivo
Method: as §2

[5] = system: ulcers; assay: Anti-ulcerogenic activity, acetic acid stomach ulcers, method of K. Takagi et al; assay type: in vivo, female rats; settings: three weeks with food
Method: The inhibiting effect of the test compounds on the formation of ulcers was determined according to the method of K. Takagi et al [Jap. J. Pharmac. 19, 418 (1969)]. The abdominal cavity of anesthetized female rats having a body weight from 220 to 250 gm was opened and the stomach was exposed. Then, 0.05 ml of an aqueous 5% acetic acid solution was injected between the muscularis mucosae and submucosa of the stomach. Thereafter, the abdominal cavity was closed again. The ulcers formed in the mucosa after 3 to 5 days were treated for three weeks by admixing the test compound in question with the food at dosage levels of 50 and 100 mgm/kg (6 animals/dose). The control animals were fed with the pulverized food only.
After treatment for three weeks the animals were killed, the stomach was removed, and the size of the ulcers was determined by measurement of their length and width. The anti-ulcerogenic activity of the test compound was determined by the size of the ulcers comparing with the control values (100%): […]

[6] = system: rabbits; assay: Secretolytic (expectorant) effect in anesthetized rabbits after oral application; assay type: in vivo; settings: 8 mgm/kg oral, within 2 hours, 6-8 animals
Method: as §1

[7] = single application, 5 white mice, read-out: Acute toxicity

Compound | Increase in secretion [1] [%] | Circulatory effect [2] | LD50 [3, 7] [mg/kg] | animals died ([4]; single 1000 mgm/kg p.o.) | reduction of the ulcers compared with control values ([5]; peroral dosage of 50 mgm/kg) [%] | reduction of the ulcers compared with control values ([5]; peroral dosage of 100 mgm/kg) [%] | animals died ([4]; single 2000 mgm/kg p.o.) | Increase in secretion [6] [%] | LD50 [3] [mg/kg]
CCN(Cc1cc(C(=O)O)cc(Br)c1N)C1CCCCC1.Cl [B, 2-amino-3-bromo-5-carboxy-N-cyclohexyl-N-ethyl-benzylamine hydrochloride] | 81 | no change | > 1000 | 0 out of 5 | – | – | – | – | –
CCOC(=O)c1cc(Br)c(N)c(CN(CC)CC)c1.Cl [A, 2-amino-3-bromo-5-carbethoxy-N,N-diethyl-benzylamine hydrochloride] | 90 | no change | > 2000 | – | 52 | 79 | 0 out of 5 | – | –
2-amino-3-bromo-N-cyclohexyl-N-ethyl-3-fluoro-benzylamine hydrochloride | 100 | – | – | 0 out of 5 | – | – | – | – | –
CN(C)Cc1cc(F)cc(Br)c1N.Cl [G, 2-amino-3-bromo-N,N-dimethyl-5-fluoro-benzylamine hydrochloride] | 84 | – | > 1000 | 0 out of 5 | – | – | – | – | –
CC(C)(C)c1cc(N)c(CN2CCOCC2)cc1Br.Cl.Cl [E, N-(2-amino-5-bromo-4-tert.butyl-benzyl)-morpholine dihydrochloride] | – | – | > 1000 | 0 out of 5 | – | – | – | 77 | –
CC(=O)c1cc(Br)c(N)c(CN(C)C)c1 [F, 5-acetyl-2-amino-3-bromo-N,N-dimethyl-benzylamine] | – | – | ~1000 | 2 out of 5 | – | – | – | 75 | –
Cc1cc(Br)cc(CN2CCCCCC2)c1N [D, N-(2-amino-5-bromo-3-methyl-benzyl)-hexamethyleneamine dihydrochloride] | – | – | – | 0 out of 5 | – | – | – | 72 | > 1000
